Measured values reported in patent US20160213684A1, “SOLID DISPERSION OF A SELECTIVE MODULATOR OF THE PROGESTERONE RECEPTOR” (LABORATOIRE HRA-PHARMA, priority 2012, published 2016).

How the values were obtained:
[1] = in vitro dissolution test (paddle dissolution device, hard gelatin capsule with 30 mg UPA); type: physicochemical; conditions: for Percentages of UPA released, expressed relative to the initial amount of UPA contained per capsule: 900 ml medium at gastric pH, 0.1% SDS, 37°C, 50 rpm, mean of 3 experiments
Procedure: The in vitro dissolution test can be carried out using any commercially available dissolution device comprising paddles. Example 1 hereinafter presents implementing conditions for determining the in vitro dissolution rate of a solid dispersion according to the invention. Briefly, an amount of solid dispersion representing 30 mg of active ingredient is placed in a gelatin capsule. This gel capsule is then placed in 900 ml of a medium buffered at gastric pH, comprising 0.1% of SDS, at 37±0.5° C., and subjected to stirring at 50 revolutions per minute (rpm) (speed of rotation of the paddles of the dissolution device). The dissolution of the active ingredient in the medium can be monitored by spectrophotometry, preferably at the maximum wavelength of absorbance. A gastric pH is typically a pH of 1 to 3.
For each solid dispersion obtained by means of the “solvent evaporation” method (§1.b) above), hard gelatin capsules containing an amount of solid dispersion corresponding to 30 mg of UPA per capsule were prepared.
The dissolution profiles were obtained as follows:
Each capsule containing a solid dispersion was placed in a bowl of the paddle dissolution device containing 900 ml of a dissolution medium. The dissolution medium is an aqueous solution buffered at gastric pH and comprising 0.1% by weight of SDS. The conditions for carrying out the in vitro dissolutions are the following: • Paddle rotation speed: 50 revolutions per minute (rpm); • Temperature: 37° C.±0.5° C.
The dissolution of the UPA was monitored by spectrophotometry.
By way of control experiment, a gelatin capsule containing 30 mg of micronized ulipristal acetate was used. For each solid dispersion evaluated, the dissolution experiment was reproduced 3 times.

[2] = single dose of 30 mg, within 120 hours following unprotected or poorly protected sexual intercourse; cited from earlier work
uterine fibromas = conditions: chronic administration, 5 mg or 10 mg per day; cited from earlier work

## CC(=O)O[C@]1(C(C)=O)CCC2C3CCC4=CC(=O)CCC4=C3[C@@H](c3ccc(N(C)C)cc3)C[C@@]21C (stereo partly drawn) [Micronized UPA, 17α-acetoxy-11β-[4-(N,N-dimethylamino)phenyl]-19-norpregna-4,9-diene-3,20-dione]
[1]; t=20 min as stated in the text, capsule
  percentage of ulipristal acetate released into the medium: approximately 42%
[1]; time 0 min
  Percentages of UPA released, expressed relative to the initial amount of UPA contained per capsule: 0%
[1]; time 1 min
  Percentages of UPA released, expressed relative to the initial amount of UPA contained per capsule: 0.23%
[1]; time 5 min
  Percentages of UPA released, expressed relative to the initial amount of UPA contained per capsule: 5.69%
[1]; time 7.5 min
  Percentages of UPA released, expressed relative to the initial amount of UPA contained per capsule: 15.28%
[1]; time 10 min
  Percentages of UPA released, expressed relative to the initial amount of UPA contained per capsule: 21.73%
[1]; time 15 min
  Percentages of UPA released, expressed relative to the initial amount of UPA contained per capsule: 29.46%
[1]; time 20 min
  Percentages of UPA released, expressed relative to the initial amount of UPA contained per capsule: 35.2%
[1]; time 30 min
  Percentages of UPA released, expressed relative to the initial amount of UPA contained per capsule: 42.14%
[1]; time 45 min
  Percentages of UPA released, expressed relative to the initial amount of UPA contained per capsule: 49.98%
[1]; time 60 min
  Percentages of UPA released, expressed relative to the initial amount of UPA contained per capsule: 55.62%
[2]
  prevention of unwanted pregnancy: makes it possible to prevent an unwanted pregnancy
Uterine fibromas
  symptoms associated with uterine fibromas: significantly reduce the symptoms associated with uterine fibromas
  therapeutic benefit versus the reference treatment leuprolide acetate: greater than that of the reference treatment
